For data set [1] the following is noted: ref Mikus et al. [2013]; cited from earlier work.
Data set [2] concerns KDR (VEGFR2). As to the kind of experiment: KDR inhibition measured in HUVEC cells. The format is cell-based, human. Conditions: from KDR IC50 data of ref McTigue et al. [2012].
For data set [3] the following is noted: phase II clinical trials for RA; ref Silverman et al. [2008]; cited from earlier work.
Data set [4] relates to Purified human recombinant kinases. The format is biochemical. Conditions: median estimate of curve top showing <50% inhibition.
Data set [5] deals with human kinases. In kind it is binding. Conditions: 10 μmol/L single concentration screen; for 197 of 387 kinases.
The target in data set [6] is Phosphodiesterase PDE5 (Homo sapiens, UniProt O76074). As to the kind of experiment: Phosphodiesterase PDE5. The format is biochemical.
Data set [7] concerns the target T1, UDP glucuronosyltransferase, UGT1A1 (Homo sapiens, UniProt P22309).
T1 sequence (P22309 26-533): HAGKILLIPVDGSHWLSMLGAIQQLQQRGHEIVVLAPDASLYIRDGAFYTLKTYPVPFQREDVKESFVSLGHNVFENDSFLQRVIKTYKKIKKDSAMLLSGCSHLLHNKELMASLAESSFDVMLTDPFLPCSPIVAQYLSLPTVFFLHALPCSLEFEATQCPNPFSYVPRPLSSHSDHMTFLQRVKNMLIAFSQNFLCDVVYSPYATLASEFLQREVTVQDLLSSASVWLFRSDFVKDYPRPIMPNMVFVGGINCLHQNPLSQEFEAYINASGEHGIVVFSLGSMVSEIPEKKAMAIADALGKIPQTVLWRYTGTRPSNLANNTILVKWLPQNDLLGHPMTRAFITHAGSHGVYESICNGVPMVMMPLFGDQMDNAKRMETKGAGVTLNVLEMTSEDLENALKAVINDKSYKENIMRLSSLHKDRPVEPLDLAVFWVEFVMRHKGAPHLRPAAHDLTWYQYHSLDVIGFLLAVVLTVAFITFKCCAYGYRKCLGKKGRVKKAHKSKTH
Put plainly: UDP glucuronosyltransferase, UGT1A1. The format is biochemical.

The target in data set [8] is Cathepsin S (Homo sapiens, UniProt P25774). Put plainly: Cathepsin S. In kind it is biochemical.
In data set [9] the target is Cathepsin L (Homo sapiens, UniProt P07711). As to the kind of experiment: Cathepsin L. The format is biochemical.
The test system of data set [10] is 314 diverse molecular targets. Put plainly: Eurofins Panlabs broad in vitro panel, 10 μmol/L single concentration screen. Conditions: at nine of 314 targets.
Data set [11] deals with T2, Adenosine A3 receptor (Homo sapiens, UniProt P0DMS8).
T2 sequence (P0DMS8 1-318): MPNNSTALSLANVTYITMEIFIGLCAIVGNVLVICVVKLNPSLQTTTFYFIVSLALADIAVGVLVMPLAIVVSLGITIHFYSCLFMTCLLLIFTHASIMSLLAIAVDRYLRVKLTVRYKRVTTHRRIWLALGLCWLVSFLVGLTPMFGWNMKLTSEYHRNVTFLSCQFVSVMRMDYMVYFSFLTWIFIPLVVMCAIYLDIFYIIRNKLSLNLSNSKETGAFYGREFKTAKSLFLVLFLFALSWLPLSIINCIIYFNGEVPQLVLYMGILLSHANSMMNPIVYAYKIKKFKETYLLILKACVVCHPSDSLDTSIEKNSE
As to the kind of experiment: Adenosine A3 receptor. As to conditions: Radioligand binding Ki.

For data set [12], the target named is T3, Fatty acid amide hydrolase (FAAH) (Rattus norvegicus, UniProt P97612).
T3 sequence (P97612 1-579): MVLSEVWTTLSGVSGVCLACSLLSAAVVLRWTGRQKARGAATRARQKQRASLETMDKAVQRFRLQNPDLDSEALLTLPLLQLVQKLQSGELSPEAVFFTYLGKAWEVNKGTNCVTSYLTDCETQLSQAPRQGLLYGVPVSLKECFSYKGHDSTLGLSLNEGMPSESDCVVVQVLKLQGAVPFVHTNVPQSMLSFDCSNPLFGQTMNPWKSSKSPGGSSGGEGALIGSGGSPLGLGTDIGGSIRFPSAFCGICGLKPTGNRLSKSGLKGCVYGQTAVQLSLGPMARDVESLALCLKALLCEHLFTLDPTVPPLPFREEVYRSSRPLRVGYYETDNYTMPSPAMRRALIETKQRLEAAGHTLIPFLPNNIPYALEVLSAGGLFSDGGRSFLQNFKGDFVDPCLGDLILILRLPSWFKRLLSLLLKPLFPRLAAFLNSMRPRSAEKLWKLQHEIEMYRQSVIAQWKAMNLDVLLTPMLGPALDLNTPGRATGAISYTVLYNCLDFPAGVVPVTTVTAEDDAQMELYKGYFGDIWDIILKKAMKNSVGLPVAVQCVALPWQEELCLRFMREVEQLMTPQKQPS
Put plainly: Fatty acid amide hydrolase. In kind it is biochemical.

In data set [13] the target is T2, Adenosine A3 receptor. In kind it is biochemical.
The format of data set [14] is physicochemical.
In data set [15] the target is Transporter, monoamine. Put plainly: Transporter, monoamine. In kind it is binding. As to conditions: Vesicular monoamine transporter (rabbit).
The test system of data set [16] is adenosine transporter. The format is cell-based, human.
The target of data set [17] is T4, Lipoxygenase 5-LO (Homo sapiens, UniProt P09917).
T4 sequence (P09917 1-674): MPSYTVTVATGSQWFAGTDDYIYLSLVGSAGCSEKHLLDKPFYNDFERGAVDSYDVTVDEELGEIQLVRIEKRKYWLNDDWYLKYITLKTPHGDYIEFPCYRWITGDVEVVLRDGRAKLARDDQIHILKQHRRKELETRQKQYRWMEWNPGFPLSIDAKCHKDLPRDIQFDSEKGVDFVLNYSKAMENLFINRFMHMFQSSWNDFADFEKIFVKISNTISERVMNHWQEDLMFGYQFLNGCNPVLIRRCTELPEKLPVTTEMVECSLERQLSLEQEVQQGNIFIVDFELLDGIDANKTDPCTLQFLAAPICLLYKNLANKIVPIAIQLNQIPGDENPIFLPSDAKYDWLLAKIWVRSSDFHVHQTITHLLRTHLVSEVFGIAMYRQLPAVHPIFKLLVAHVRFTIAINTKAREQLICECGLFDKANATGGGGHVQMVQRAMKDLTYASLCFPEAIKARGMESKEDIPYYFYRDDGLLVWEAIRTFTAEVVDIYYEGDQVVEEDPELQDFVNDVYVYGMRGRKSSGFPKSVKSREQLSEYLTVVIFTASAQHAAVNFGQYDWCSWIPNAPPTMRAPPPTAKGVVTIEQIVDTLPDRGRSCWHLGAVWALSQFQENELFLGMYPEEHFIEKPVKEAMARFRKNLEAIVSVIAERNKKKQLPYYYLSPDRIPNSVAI
As to the kind of experiment: Lipoxygenase 5-LO. In kind it is biochemical.

Converted amounts (≈) assume the structure as drawn. Read-outs that look alike come from different tables or passages of the source. Where only a bound is given, the exact number is not on record here.

These results are taken from article PMC4618646 (Pharmacology Research & Perspectives, 2015).

Sequence of Cathepsin L (P07711 114-333): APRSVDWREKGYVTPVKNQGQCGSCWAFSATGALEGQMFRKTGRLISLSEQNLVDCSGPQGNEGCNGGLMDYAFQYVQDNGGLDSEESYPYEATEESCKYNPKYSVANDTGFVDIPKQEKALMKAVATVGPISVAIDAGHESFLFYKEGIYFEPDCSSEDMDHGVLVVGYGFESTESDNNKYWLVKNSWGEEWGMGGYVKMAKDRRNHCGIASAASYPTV
Sequence of Cathepsin S (P25774 115-331): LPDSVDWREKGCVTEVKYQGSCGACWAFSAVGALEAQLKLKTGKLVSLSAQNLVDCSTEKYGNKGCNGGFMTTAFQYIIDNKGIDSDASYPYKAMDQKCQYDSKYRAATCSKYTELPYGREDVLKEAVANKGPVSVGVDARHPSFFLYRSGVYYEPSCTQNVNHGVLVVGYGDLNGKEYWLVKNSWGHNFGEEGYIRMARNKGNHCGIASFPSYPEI

Consider `COc1ccc(C(=O)Nc2nc3ccccc3c(NCc3ccccc3)c2C#N)cc1` [SSR161421], for which the “effects in animal models of asthma” value in [1] is “beneficial effects”.
Take `COc1cc2c(Oc3ccc4[nH]c(C)cc4c3F)ncnc2cc1OCCCN1CCCC1` [cediranib]: in data set [2], the “fold more potent at KDR than sunitinib” value is listed as ~31 fold.
As for `CNC(=O)[C@H]1O[C@@H](n2cnc3c(NCc4cccc(I)c4)ncnc32)[C@H](O)[C@@H]1O` [CF101], the “adverse effects on blood pressure” value in [3] is recorded as “no adverse effects on blood pressure”.
Take `COc1cc(Nc2ncc(F)c(Nc3ccc4c(n3)NC(=O)C(C)(C)O4)n2)cc(OC)c1OC` [R406]: the “activity in the remaining 19 of 139 kinase activity assays” value in data set [4] is “inactive”. For the same compound, the “inhibition of the qPCR signal” value in data set [5] is ≥ 80%. Moreover, the Mode of action entry is reported as “Inhibitor” in data set [6] (Phosphodiesterase PDE5 (human)); “Inhibitor” in data set [7] (UDP glucuronosyltransferase UGT1A1 (human)); “Inhibitor” in [8] (Cathepsin S (human)); “Inhibitor” in data set [9] (Cathepsin L (human)); “Inhibitor” in data set [12] (Fatty acid amide hydrolase (rat)); “Antagonist” in data set [13] (Adenosine A3 receptor (human)). Besides, the Mode of action entry in data set [16] (Adenosine transporter (human)) and in [17] (5-Lipoxygenase (human)) was “Inhibitor” throughout. The IC50 is 0.308 µM in data set [6] (Radioligand binding or enzyme activity IC50, Phosphodiesterase PDE5 (human)); 0.143 µM in [7] (Radioligand binding or enzyme activity IC50, UDP glucuronosyltransferase UGT1A1 (human)); 11.9 µM in data set [8] (Radioligand binding or enzyme activity IC50, Cathepsin S (human)); 5.93 µM in [9] (Radioligand binding or enzyme activity IC50, Cathepsin L (human)); 1.51 µM in data set [12] (Radioligand binding or enzyme activity IC50, Fatty acid amide hydrolase (rat)); 1.96 µM in [15] (read-out: Radioligand binding or enzyme activity IC50). Besides, the IC50 in data set [16] (read-out: IC50, inhibition of adenosine uptake, U937 cells, [^3H]adenosine) turned out to be 0.1 µM; in data set [17] (Radioligand binding or enzyme activity IC50, 5-Lipoxygenase (human)), 5.5 µM. The inhibition in [10] is reported as > 50%. The values for the Ki in data set [11] and in [15] (read-out: Radioligand binding Ki) were 0.017 µM and 1.63 µM, respectively. Besides, the “effect of R406 on its own on GTPγS binding” value in data set [13] (concentrations up to 10 μmol/L, absence of agonist) is “no effect”. For the same compound, the solubility in [14] (solubility in DMSO, 100% DMSO) is ~140 mM (≈ 65.9 mg/mL); in [14] (solubility in phosphate-buffered saline, physiological pH) it was 0.0002 mM (≈ 9.41e-05 mg/mL).

As a reminder, the IC50 is the concentration at which inhibition is half-maximal. A word on the inhibition: it is the drop in the measured response relative to a control, in per cent. Broadly, the Ki is the dissociation constant of the complex between target and ligand, obtained from inhibition or displacement. A word on the solubility: it is the dissolved amount per volume that the medium holds.
